Drawing on publication PMC5451161 (Tetrahedron, asymmetry, 2016), this text covers Ki for one compound.

Broadly, the Ki is a dissociation constant, usually derived from enzyme kinetics or from competition with a known ligand. The low end stands for higher affinity, the high end for lower affinity.

Molecules are shown by their SMILES.

The target of this assay is NDM-1 (New Delhi metallo-β-Lactamase) (Klebsiella pneumoniae, UniProt C7C422). Format: biochemical.
Chain of NDM-1 (New Delhi metallo-β-Lactamase) (C7C422 29-270 limits assumed): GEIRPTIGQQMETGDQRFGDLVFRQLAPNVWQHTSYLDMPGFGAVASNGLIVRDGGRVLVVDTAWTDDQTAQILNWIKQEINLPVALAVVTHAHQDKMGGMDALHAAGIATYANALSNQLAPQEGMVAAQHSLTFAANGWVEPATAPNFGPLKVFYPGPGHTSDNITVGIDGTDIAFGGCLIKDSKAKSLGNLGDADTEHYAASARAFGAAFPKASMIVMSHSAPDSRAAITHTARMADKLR

As to `COC(=O)[C@@H]1COC2CSC(CS)N21` (stereo partly shown) [4f], the Ki worked out at 1600 ± 600 nM.
